From patent US20200131129A1, “FARNESOID X RECEPTOR AGONISTS AND USES THEREOF” (Metacrine, Inc., priority 2017, published 2020)

What follows are compounds tested against T1, hFXR (Homo sapiens, UniProt Q96RI1) (assay: In Vitro FXR Assay (TK): hFXR/hRXR TK-ECRE-luc reporter in transfected CV-1 cells). Settings: CV-1 cells transfected with hFXR, hRXR, 18 hrs incubation, luminescence, maximum efficacy <25% of Fexarmine control also classified as ‘+’.
T1 construct: expressed in transfected cells; host or cells: CV-1 cells
T1 sequence (Q96RI1 1-486): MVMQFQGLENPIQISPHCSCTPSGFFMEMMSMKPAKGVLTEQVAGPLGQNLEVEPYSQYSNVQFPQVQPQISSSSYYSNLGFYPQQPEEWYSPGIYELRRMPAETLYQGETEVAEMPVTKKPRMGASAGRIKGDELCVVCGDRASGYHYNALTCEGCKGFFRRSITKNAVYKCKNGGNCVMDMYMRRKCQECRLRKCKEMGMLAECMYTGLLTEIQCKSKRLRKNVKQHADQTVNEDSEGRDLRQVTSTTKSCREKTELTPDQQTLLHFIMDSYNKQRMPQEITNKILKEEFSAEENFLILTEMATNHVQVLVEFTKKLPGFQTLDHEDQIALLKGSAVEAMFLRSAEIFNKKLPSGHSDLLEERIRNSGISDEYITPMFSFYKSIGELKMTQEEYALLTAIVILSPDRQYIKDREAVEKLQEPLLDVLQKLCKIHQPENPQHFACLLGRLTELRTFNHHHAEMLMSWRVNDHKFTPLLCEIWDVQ
T1 sequence (P19793 1-462 partner): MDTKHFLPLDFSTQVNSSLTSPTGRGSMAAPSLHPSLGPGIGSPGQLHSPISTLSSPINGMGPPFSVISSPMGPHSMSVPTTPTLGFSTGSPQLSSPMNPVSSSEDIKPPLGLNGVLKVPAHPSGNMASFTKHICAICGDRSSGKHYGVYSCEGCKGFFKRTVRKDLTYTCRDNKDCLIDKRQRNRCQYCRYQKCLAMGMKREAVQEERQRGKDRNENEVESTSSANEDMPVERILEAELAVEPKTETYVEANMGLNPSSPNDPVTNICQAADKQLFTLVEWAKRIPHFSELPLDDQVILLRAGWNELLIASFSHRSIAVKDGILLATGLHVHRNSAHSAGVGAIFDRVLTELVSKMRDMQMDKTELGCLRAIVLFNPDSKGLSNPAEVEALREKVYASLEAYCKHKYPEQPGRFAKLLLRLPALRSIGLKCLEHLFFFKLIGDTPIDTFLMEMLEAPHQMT
Assay type: cell-based
Protocol: Example B-1: In Vitro FXR Assay (TK)
CV-1 cells were seeded at a density of 2,000,000 cells in a T175 flask with DMEM+10% charcoal double-stripped FBS and incubated at 37° C. in 5% CO2 for 18 h (O/N).
After 18 h of incubation, the medium in the T175 flask was changed with fresh DMEM+10% charcoal super-stripped serum. In a polypropylene tube, 2500 μL OptiMEM (Life Technologies, Cat #31985-062) was combined with expression plasmids for hFXR, hRXR, TK-ECRE-luc and pCMX-YFP. The tube was then briefly vortexed and incubated at room temperature for 5 minutes. Transfection reagent (X-tremeGENE HP from Roche, Cat #06 366 236 001) was added to the OptiMEM/plasmid mixture vortexed and incubated at room temperature for 20 minutes. Following incubation, the transfection reagent/DNA mixture complex was added to cells in the T175 flask and the cells were incubated at 37° C. in 5% CO2 for 18 h (0/N).
Compounds were serially diluted in DMSO and added to transfected CV-1 cells. The cells were then incubated for 18 hrs. The next day cells were lysed and examined for luminescence.

| SMILES | EC50 |
| --- | --- |
| COc1ccc([C@H]2CC[C@H](CN(c3cccc(-c4ccsn4)c3)C(=O)[C@H]3CC[C@H](O)CC3)CC2)cc1C [Compound 2.07, trans-4-Hydroxy-N-(3-(isothiazol-3-yl)phenyl)-N-((trans-4-(4-methoxy-3-methylphenyl)cyclohexyl)methyl)cyclohexanecarboxamide] | 500 to 1000 nM |
| COc1ccc([C@H]2CC[C@H](CN(c3cccc(-c4ccc(C(F)(F)F)nc4)c3)C(=O)[C@H]3CC[C@H](O)CC3)CC2)cc1C [Compound 1.04, trans-4-Hydroxy-N-((trans-4-(4-methoxy-3-methylphenyl)cyclohexyl)methyl)-N-(3-(6-(trifluoromethyl)pyridine-3-yl)phenyl)cyclohexanecarboxamide] | ≤ 500 nM |
| COc1ccc([C@H]2CC[C@H](CN(c3cccc(C#Cc4ncn(C)n4)c3)C(=O)[C@H]3CC[C@H](O)CC3)CC2)cc1C [Compound 12, trans-4-Hydroxy-N-((trans-4-(4-methoxy-3-methylphenyl)cyclohexyl)methyl)-N-(3-((1-methyl-1H-1,2,4-triazol-3-yl)ethynyl)phenyl)cyclohexanecarboxamide] | ≤ 500 nM |
| COc1ccc([C@H]2CC[C@H](CN(c3cccc(-c4cn(C)nn4)c3)C(=O)[C@H]3CC[C@H](O)CC3)CC2)cc1C [Compound 2.05, trans-4-Hydroxy-N-((trans-4-(4-methoxy-3-methylphenyl)cyclohexyl)methyl)-N-(3-(1-methyl-1H-1,2,3-triazol-4-yl)phenyl)cyclohexanecarboxamide] | ≥ 1000 nM |
| COc1ccc([C@H]2CC[C@H](CN(c3cccc(-c4ccc(C5CC5)nc4)c3)C(=O)[C@H]3CC[C@H](O)CC3)CC2)cc1C [Compound 1.07, trans-N-(3-(6-Cyclopropylpyridin-3-yl)phenyl)-4-hydroxy-N-((trans-4-(4-methoxy-3-methylphenyl)cyclohexyl)methyl)cyclohexanecarboxamide] | ≤ 500 nM |
| COc1ccc([C@H]2CC[C@H](CN(c3cccc(-n4cnc(C)n4)c3)C(=O)[C@H]3CC[C@H](O)CC3)CC2)cc1C [Compound 7, trans-4-Hydroxy-N-((trans-4-(4-methoxy-3-methylphenyl)cyclohexyl)methyl)-N-(3-(3-methyl-1-1,2,4-triazol-1-yl)phenyl)cyclohexanecarboxamide] | 500 to 1000 nM |
| COc1ccc([C@H]2CC[C@H](CN(c3cccc(-c4nnc(C)s4)c3)C(=O)[C@H]3CC[C@H](O)CC3)CC2)cc1C [Compound 2.04, trans-4-Hydroxy-N-((trans-4-(4-methoxy-3-methylphenyl)cyclohexyl)methyl)-N-(3-(5-methyl-1,3,4-thiadiazol-2-yl)phenyl)cyclohexanecarboxamide] | ≥ 1000 nM |
| COc1ccc([C@H]2CC[C@H](CN(c3cccc(-c4ccc(OC(C)C)nc4)c3)C(=O)[C@H]3CC[C@H](O)CC3)CC2)cc1C [Compound 1.06, trans-4-Hydroxy-N-(3-(6-isopropoxypyridin-3-yl)phenyl)-N-((trans-4-(4-methoxy-3-methylphenyl)cyclohexyl)methyl)cyclohexanecarboxamide] | ≤ 500 nM |
| COc1ccc([C@H]2CC[C@H](CN(c3cccc(-n4cnc(C5CC5)n4)c3)C(=O)[C@H]3CC[C@H](O)CC3)CC2)cc1C [Compound 7.01, trans-N-(3-(3-Cyclopropyl-1H-1,2,4-triazol-1-yl)phenyl)-4-hydroxy-N-((trans-4-(4-methoxy-3-methylphenyl)cyclohexyl)methyl)cyclohexanecarboxamide] | ≤ 500 nM |

Other lines, results leading:

| EC50 | SMILES |
| --- | --- |
| ≤ 500 nM | COc1ccc([C@H]2CC[C@H](CN(c3cc(-c4coc(C5CC5)n4)ccn3)C(=O)[C@H]3CC[C@H](O)CC3)CC2)nc1C [Compound 10.09, trans-N-(4-(2-Cyclopropyloxazol-4-yl)pyridine-2-yl)-4-hydroxy-N-((trans-4-(5-methoxy-6-methylpyridin-2-yl)cyclohexyl)methyl) cyclohexanecarboxamide] |
| ≤ 500 nM | COc1ccc([C@H]2CC[C@H](CN(c3cccc(-c4coc(C)n4)c3)C(=O)[C@H]3CC[C@H](O)CC3)CC2)cc1C [Compound 9.04, trans-4-Hydroxy-N-((trans-4-(4-methoxy-3-methylphenyl)cyclohexyl)methyl)-N-(3-(2-methyloxazol-4-yl)phenyl)cyclohexanecarboxamide] |
| ≤ 500 nM | COc1ccc([C@H]2CC[C@H](CN(c3cc(-c4coc(C(C)C)n4)ccn3)C(=O)[C@H]3CC[C@H](O)CC3)CC2)cc1C [Compound 10.13, trans-4-Hydroxy-N-(4-(2-isopropyloxazol-4-yl)pyridine-2-yl)-N-((trans-4-(4-methoxy-3-methylphenyl)cyclohexyl)methyl) cyclohexanecarboxamide] |
| ≤ 500 nM | COc1ccc([C@H]2CC[C@H](CN(c3cccc(-c4coc(C5CC5)n4)c3)C(=O)[C@H]3CC[C@H](O)CC3)CC2)nc1C#N [Compound 10.14, trans-N-((trans-4-(6-Cyano-5-methoxypyridin-2-yl)cyclohexyl)methyl)-N-(3-(2-cyclopropyloxazol-4-yl)phenyl)-4-hydroxycyclohexanecarboxamide] |
| ≤ 500 nM | COc1ccc([C@H]2CC[C@H](CN(c3cc(-c4coc(C(C)C)n4)ccn3)C(=O)[C@H]3CC[C@H](O)CC3)CC2)nc1C [Compound 10.17, trans-4-Hydroxy-N-(4-(2-isopropyloxazol-4-yl)pyridine-2-yl)-N-((trans-4-(5-methoxy-6-methylpyridin-2-yl)cyclohexyl)methyl) cyclohexanecarboxamide] |
| ≤ 500 nM | COc1ccc([C@H]2CC[C@H](CN(c3cc(-c4coc(C5CC5)n4)ccn3)C(=O)[C@H]3CC[C@H](O)CC3)CC2)cc1C#N [Compound 10.12, trans-N-((trans-4-(3-Cyano-4-methoxyphenyl)cyclohexyl)methyl)-N-(4-(2-cyclopropyloxazol-4-yl)pyridine-2-yl)-4-hydroxycyclohexanecarboxamide] |
| ≤ 500 nM | COc1ccc([C@H]2CC[C@H](CN(c3cccc(-c4cc(C5CC5)on4)c3)C(=O)[C@H]3CC[C@H](O)CC3)CC2)cc1C [Compound 9.14, trans-N-(3-(5-Cyclopropylisoxazol-3-yl)phenyl)-4-hydroxy-N-((trans-4-(4-methoxy-3-methylphenyl)cyclohexyl)methyl) cyclohexanecarboxamide] |
| ≤ 500 nM | CN(C)c1ccc(C23CCC(CN(c4cccc(-c5coc(C6CC6)n5)c4)C(=O)[C@H]4CC[C@H](O)CC4)(CC2)CC3)cn1 [Compound 10.03, trans-N-(3-(2-Cyclopropyloxazol-4-yl)phenyl)-N-((4-(6-(dimethylamino)pyridine-3-yl)bicyclo[2.2.2]octan-1-yl)methyl)-4-hydroxycyclohexanecarboxamide] |
| ≤ 500 nM | COc1ccc(C23CCC(CN(c4cccc(-c5cc(C6CC6)ns5)c4)C(=O)[C@H]4CC[C@H](O)CC4)(CC2)CC3)cc1C [Compound 10.01, trans-N-(3-(3-Cyclopropylisothiazol-5-yl)phenyl)-4-hydroxy-N-((4-(4-methoxy-3-methylphenyl)bicyclo[2.2.2]octan-1-yl)methyl)cyclohexanecarboxamide] |
| ≤ 500 nM | COc1ccc([C@H]2CC[C@H](CN(c3cccc(-c4cc(C)on4)c3)C(=O)[C@H]3CC[C@H](O)CC3)CC2)cc1C [Compound 9.08, trans-4-Hydroxy-N-((trans-4-(4-methoxy-3-methylphenyl)cyclohexyl)methyl)-N-(3-(5-methylisoxazol-3-yl)phenyl)cyclohexanecarboxamide] |
| ≤ 500 nM | COc1ccc([C@H]2CC[C@H](CN(c3cccc(-c4coc(C5CC5)n4)c3)C(=O)[C@H]3CC[C@H](O)CC3)CC2)nc1C [Compound 10.06, trans-N-(3-(2-Cyclopropyloxazol-4-yl)phenyl)-4-hydroxy-N-((trans-4-(5-methoxy-6-methylpyridin-2-yl)cyclohexyl)methyl) cyclohexanecarboxamide] |
